From patent publication US11882834B2, “Microbiocidal thiazole derivatives” (SYNGENTA PARTICIPATIONS AG, priority 2017, dated 2024)

Key:
[1] = tested on: Mycosphaerella arachidis (Cercospora arachidicola); assay: Mycosphaerella arachidis (Cercospora arachidicola) / liquid culture (early leaf spot); format: cell-based; conditions: 200 ppm in the formulation; liquid culture (PDB), growth determined photometrically 4-5 days after application; compared to untreated
Description: Mycosphaerella arachidis (Cercospora arachidicola)/Liquid Culture (Early Leaf Spot) Conidia of the fungus from cryogenic storage are directly mixed into nutrient broth (PDB potato dextrose broth). After placing a (DMSO) solution of test compound into a microtiter plate (96-well format), the nutrient broth containing the fungal spores is added. The test plates are incubated at 24° C. and the inhibition of growth is determined photometrically 4-5 days after application.

[2] = tested on: Phaeosphaeria nodorum (Septoria nodorum); assay: Phaeosphaeria nodorum (Septoria nodorum) / wheat / leaf disc preventative (glume blotch); format: in vivo; conditions: 200 ppm in the formulation, wheat leaf segments cv. Kanzler, compared to untreated, 5-7 days after application
Description: Phaeosphaeria nodorum (Septoria nodorum)/Wheat/Leaf Disc Preventative (Glume Blotch) Wheat leaf segments cv. Kanzler are placed on agar in a multiwell plate (24-well format) and sprayed with the formulated test compound diluted in water. The leaf disks are inoculated with a spore suspension of the fungus 2 days after application. The inoculated test leaf disks are incubated at 20° C. and 75% rh under a light regime of 12 h light/12 h darkness in a climate cabinet and the activity of a compound is assessed as percent disease control compared to untreated when an appropriate level of disease damage appears in untreated check leaf disks (5-7 days after application).

Q: With Cc1sc(Nc2cc(F)nc(F)c2)nc1C(=O)NC1CCC1(C)C (centres unmarked) [Compound I.r.19, 2-[(2,6-difluoro-4-pyridyl)amino]-N-(2,2-dimethylcyclobutyl)-5-methyl-thiazole-4-carboxamide] as the compound, how does the disease control [1] read?
A: The disease control was “at least 80%”.

Q: And the disease control [2]?
A: The disease control was “at least 80%”.
